This is an account of results in patent US11366104B2, “Methods of identifying and monitoring mitochondrial dysfunction using monocyte screening” (Stealth BioTherapeutics Inc., priority 2014, dated 2022).

Data set [1] relates to several mammalian cell types. As to conditions: energy-independent manner; Zhao et al., J. Pharmacol Exp Ther., 304:425-432, 2003; cited from earlier work.
The test system of data set [2] is Monocytes from Heart Failure Dogs. Briefly: Oxygen consumption rate (XF analyzer) in isolated monocytes incubated with peptide, heart failure dogs. Format: cell-based, dog. Conditions: for MAXresp (maximal respiration) / Proton Leak / SRC (spare respiratory capacity): monocytes from heart failure dogs. How it is done: (§1) Peripheral blood samples were obtained from 6 normal dogs and 6 dogs with coronary microembolizations-induced heart failure (LV ejection fraction ˜30%). Monocytes were isolated from the peripheral blood samples via sequential Ficoll and Percoll density gradients. Monocyte viability, assayed using Trypan blue exclusion, was ˜70%. An XFc/XF96 analyzer (Scahorsc Bioscience) was used to measure oxygen consumption rates (OCR) in monocytes in the presence and absence of 1 μM oligomycin, 0.5 μM FCCP, or 1 μM each rotenone and antimycin. Mitochondrial proton leak, maximal respiration (MAXresp) and spare respiratory capacity (SRC) were measured in the presence and absence of 0.1, 1.0 and 10 μM concentrations of D-Arg-2′6′Dmt-Lys-Phe-NH2. Results were expressed in pmols OCR/min/μg protein.

Data set [3] relates to Monocytes from Normal Dogs. The data set is described as follows: Oxygen consumption rate (XF analyzer) in isolated monocytes incubated with peptide, normal dogs. Conditions: for MAXresp (maximal respiration) / Proton Leak / SRC (spare respiratory capacity): monocytes from normal dogs. Format: cell-based, dog. How it is done:
as §1

Setting [4] is: heart failure dogs, 0.1, 1.0 and 10 μM.

Regarding 2′,6′-Dmt-D-Arg-Phe-Lys-NH2, the “penetration of the plasma membrane” value in data set [1] is given as “readily penetrates the plasma membrane”.

Consider D-Arg-2′6′Dmt-Lys-Phe-NH2, for which the “change in MAXresp with concentration” value in data set [2] (setting [4]) is listed as “dose-dependent increase”. In addition, the “change in SRC with concentration” value in data set [2] (setting [4]) was “dose-dependent increase”. Moreover, in data set [2] (setting [4]), the “change in proton leak with concentration” value is given as “dose-dependent decrease”. Besides, in data set [2] (heart failure dogs, after treatment with 0.1, 1.0 and 10 μM), the monocyte mitochondrial function entry is listed as “nearly normalized/restored”. Also, the “MAXresp (maximal respiration)” value was found to be 6.3 pmols OCR/min/μg protein in data set [2] (peptide concentration 0.1 μM); 8.3 pmols OCR/min/μg protein in data set [2] (peptide concentration 1.0 μM); 9.4 pmols OCR/min/μg protein in data set [2] (peptide concentration 10 μM); 11.1 pmols OCR/min/μg protein in data set [3] (peptide concentration 0.1 μM); 12.1 pmols OCR/min/μg protein in data set [3] (peptide concentration 1.0 μM); 12.1 pmols OCR/min/μg protein in data set [3] (peptide concentration 10 μM). For the same substance, the “Proton Leak” value stood at 1.55 pmols OCR/min/μg protein in data set [2] (peptide concentration 0.1 μM); 0.94 pmols OCR/min/μg protein in data set [2] (peptide concentration 1.0 μM); 0.77 pmols OCR/min/μg protein in data set [2] (peptide concentration 10 μM); 0.54 pmols OCR/min/μg protein in data set [3] (peptide concentration 0.1 μM); 0.47 pmols OCR/min/μg protein in data set [3] (peptide concentration 1.0 μM); 0.48 pmols OCR/min/μg protein in data set [3] (peptide concentration 10 μM). The “SRC (spare respiratory capacity)” value in data set [2] (peptide concentration 0.1 μM) is recorded as 1.95 pmols OCR/min/μg protein; in data set [2] (peptide concentration 1.0 μM) it was 3.64 pmols OCR/min/μg protein; in data set [2] (peptide concentration 10 μM), 4.51 pmols OCR/min/μg protein; in data set [3] (peptide concentration 0.1 μM), 6.35 pmols OCR/min/μg protein; in data set [3] (peptide concentration 1.0 μM) it was 7.04 pmols OCR/min/μg protein; in data set [3] (peptide concentration 10 μM), 7.04 pmols OCR/min/μg protein. The “effect on measures of monocyte mitochondrial function” value in data set [3] (normal dogs, incubation with 0.1, 1.0 and 10 μM) was “no effect”.
